Consider 9 compounds from patent US10189807B2, “Tetrahydrothiophene-based GABA aminotransferase inactivators” (Northwestern University, priority 2015, dated 2019).

Where a name gives a salt, the structure may show the parent alone. Read-outs that look alike come from different tables or passages of the source.

Series [1] concerns the target T1, GABA-AT (Sus scrofa (Pig), UniProt P80147). Briefly: Inhibition of GABA-AT, coupled assay with SSDH. It is filed as biochemical. The protocol:
(§1) GABA-AT was isolated and purified from pig brain by a published procedure.
Inhibition constants were determined by monitoring GABA-AT activity in the presence of 0-50 mM concentrations of synthesized analogues using a coupled assay with the enzyme succinic semialdehyde dehydrogenase (SSDH). The assay solution consisted of 10 mM GABA, 5 mM α ketoglutarate, 1 mM NADP^+, 5 mM β-mercaptoethanol, and excess SSDH in 50 mM potassium pyrophosphate buffer, pH 8.5. Enzyme activity was determined by observing the change in absorbance at 340 nm at 25° C. IC50 values were obtained using non-linear regression in GraphPad Prism5 software. Subsequent Ki values were determined using the Cheng-Prusoff relationship. (Yung-Chi, C.; Prusoff, W. H. Biochem. Pharmacol. 1973, 22, 3099-3108.)

The subject of series [2] is GABA-AT. The following applies: prior art; cited from earlier work.
For series [3], the system named is aspartate aminotransferase. The note with it: off-target enzyme; cited from earlier work.
Series [4] deals with T1, GABA-AT. Briefly: Time-dependent inhibition (inactivation) of GABA-AT, Kitz and Wilson replot. It is filed as biochemical. The following applies: preliminary in vitro results. The protocol: as §1
GABA-AT (17.5 μL) was incubated in the presence of varying concentrations of each compound (70 μL final volume) at 25° C. in 50 mM potassium pyrophosphate buffer solution, pH 6.5, containing 5 mM α-ketoglutarate and 1 mM β-mercaptoethanol. […] The relative enzyme activity was determined by normalizing the rate of increasing absorbance at 340 nm to a control. A Kitz and Wilson replot was used to determine the kinetic constants KI and kinact.

For the next series, the target named is hERG channel (Homo sapiens (Human), UniProt Q12809). The series is described as follows: Inhibition of the hERG channel, automated whole-cell patch clamp. It is filed as cell-based. The note with it: hERG CHO-K1 cell line; 0.1, 1 and 10 μM; 5 min at room temperature. The protocol: The experiments were performed by Eurofins Panlabs (Redmond, Wash. 98052, USA). hERG CHO-K1 cell line was used. The test concentrations were 0.1 μM, 1 μM, and 10 μM. The incubation time was 5 min at room temperature, cumulatively. The detection method used an automated whole-cell patch clamp. The experiments were duplicated, and the % inhibition of the tail current was averaged (FIG. 9).
hERG channel, sequence (Q12809 whole entry): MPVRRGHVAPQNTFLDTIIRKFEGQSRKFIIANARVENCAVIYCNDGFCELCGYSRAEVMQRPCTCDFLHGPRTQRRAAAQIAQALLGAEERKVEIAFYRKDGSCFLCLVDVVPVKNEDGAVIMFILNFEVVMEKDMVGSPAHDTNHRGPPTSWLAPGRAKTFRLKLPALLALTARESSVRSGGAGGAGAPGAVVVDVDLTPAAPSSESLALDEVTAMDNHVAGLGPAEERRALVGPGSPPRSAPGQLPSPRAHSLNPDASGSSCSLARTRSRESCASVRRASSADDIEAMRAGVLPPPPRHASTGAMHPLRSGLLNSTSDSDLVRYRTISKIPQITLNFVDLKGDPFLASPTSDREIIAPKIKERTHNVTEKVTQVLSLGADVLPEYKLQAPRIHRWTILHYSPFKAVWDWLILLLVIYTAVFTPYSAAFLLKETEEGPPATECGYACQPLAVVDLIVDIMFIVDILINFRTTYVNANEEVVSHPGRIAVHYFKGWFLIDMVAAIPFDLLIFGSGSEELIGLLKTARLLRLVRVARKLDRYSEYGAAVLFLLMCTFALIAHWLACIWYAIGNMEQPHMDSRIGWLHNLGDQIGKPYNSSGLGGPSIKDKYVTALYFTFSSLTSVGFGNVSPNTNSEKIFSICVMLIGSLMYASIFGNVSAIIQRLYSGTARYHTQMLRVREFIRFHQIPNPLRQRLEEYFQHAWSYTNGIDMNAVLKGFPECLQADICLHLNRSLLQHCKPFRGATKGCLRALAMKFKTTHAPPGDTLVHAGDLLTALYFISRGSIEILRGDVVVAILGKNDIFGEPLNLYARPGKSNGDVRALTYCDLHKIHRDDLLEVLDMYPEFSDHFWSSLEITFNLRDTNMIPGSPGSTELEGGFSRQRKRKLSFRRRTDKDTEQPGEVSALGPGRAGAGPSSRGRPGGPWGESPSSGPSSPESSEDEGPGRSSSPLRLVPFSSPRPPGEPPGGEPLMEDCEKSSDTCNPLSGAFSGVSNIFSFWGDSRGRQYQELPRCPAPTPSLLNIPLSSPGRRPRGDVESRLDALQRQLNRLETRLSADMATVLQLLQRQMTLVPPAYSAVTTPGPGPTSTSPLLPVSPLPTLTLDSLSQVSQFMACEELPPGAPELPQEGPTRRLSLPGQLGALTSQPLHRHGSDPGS
Background: The hERG channel carries a current that helps repolarise heart muscle cells.

A further series addresses CYP1A (Homo sapiens (Human), UniProt P05177). The series is described as follows: Inhibition of microsomal cytochromes P450: CYP1A. The note with it: 10 μM, HLM, phenacetin substrate, 10 min at 37° C. Type of series: in vitro ADME. How it is done: (§2) The experiments were performed by Eurofins Panlabs (Redmond, Wash. 98052, USA). CYP1A inhibition (HLM, phenacetin substrate), CYP2B6 inhibition (HLM, bupropion substrate), CYP2C8 inhibition (HLM, paclitaxel substrate), CYP2C9 inhibition (HLM, diclofenac substrate), CYP2C19 inhibition (HLM, omeprazole substrate), CYP2D6 inhibition (HLM, dextromethorphan substrate), and CYP3A inhibition (HLM, midazolam and testosterone substrates) were tested. The test concentration was 10 μM. The incubation time was 10 min at 37° C. The detection method was by HPLC-MS/MS. The experiments were duplicated, and the % inhibition of the control values was averaged (FIG. 10).

The target of the next series is CYP2B6 (Homo sapiens (Human), UniProt P20813). Briefly: Inhibition of microsomal cytochromes P450: CYP2B6. Type of series: in vitro ADME. The following applies: 10 μM, HLM, bupropion substrate, 10 min at 37° C. The protocol: as §2
CYP2B6, sequence (P20813 whole entry): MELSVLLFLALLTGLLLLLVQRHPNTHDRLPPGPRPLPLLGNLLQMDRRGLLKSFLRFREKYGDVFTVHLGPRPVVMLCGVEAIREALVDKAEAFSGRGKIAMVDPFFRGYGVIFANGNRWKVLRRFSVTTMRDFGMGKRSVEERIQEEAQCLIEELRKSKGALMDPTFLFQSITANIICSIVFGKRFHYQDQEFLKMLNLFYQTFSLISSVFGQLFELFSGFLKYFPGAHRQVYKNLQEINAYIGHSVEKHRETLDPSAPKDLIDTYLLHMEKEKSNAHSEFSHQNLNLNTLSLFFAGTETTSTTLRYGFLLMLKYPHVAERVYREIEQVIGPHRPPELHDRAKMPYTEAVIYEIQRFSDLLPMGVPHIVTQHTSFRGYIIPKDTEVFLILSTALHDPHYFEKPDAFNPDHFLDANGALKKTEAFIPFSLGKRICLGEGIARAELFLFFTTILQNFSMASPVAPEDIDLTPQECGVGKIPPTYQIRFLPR
In another series the target is CYP2C8 (Homo sapiens (Human), UniProt P10632). The series is described as follows: Inhibition of microsomal cytochromes P450: CYP2C8. The note with it: 10 μM, HLM, paclitaxel substrate, 10 min at 37° C. It is filed as in vitro ADME. The protocol:
as §2

The target of another series is CYP2C9 (Homo sapiens (Human), UniProt P11712). The series is described as follows: Inhibition of microsomal cytochromes P450: CYP2C9. It is filed as in vitro ADME. The note with it: 10 μM, HLM, diclofenac substrate, 10 min at 37° C. The protocol:
as §2

A further series deals with CYP2C19 (Homo sapiens (Human), UniProt P33261). Briefly: Inhibition of microsomal cytochromes P450: CYP2C19. It is filed as in vitro ADME. The note with it: 10 μM, HLM, omeprazole substrate, 10 min at 37° C. How it is done:
as §2

For a further series, the target named is CYP2D6 (Homo sapiens (Human), UniProt P10635). The series is described as follows: Inhibition of microsomal cytochromes P450: CYP2D6. It is filed as in vitro ADME. The following applies: 10 μM, HLM, dextromethorphan substrate, 10 min at 37° C. How it is done:
as §2

The next series has as its system CYP3A. The series is described as follows: Inhibition of microsomal cytochromes P450: CYP3A. It is filed as in vitro ADME, human. The following applies: 10 μM, HLM, midazolam and testosterone substrates, 10 min at 37° C. How it is done:
as §2

The next series is described as follows: Plasma protein binding. It is filed as in vitro ADME.
Series [5] in a line: Metabolic stability in human liver microsomes. Type of series: in vitro ADME. The note with it: 0.1 μM, over 60 minutes at 37° C., LC-MS/MS. How it is done: The experiments were performed by Eurofins Panlabs (Redmond, Wash. 98052, USA). The test concentration of 17 was 0.1 μM. […] The detection method was by LC-MS/MS. Imipramine, propranolol, terfenadine, and verapamil were run in similar condition as controls.

The test system of another series is infantile spasms. The following applies: multiple-hit rat model of infantile spasms; cited from earlier work.
Setting [6] is: competitive inhibition, read-out: Ki (competitive inhibitor of GABA-AT).

T1 sequence (P80147 29-500 limits assumed): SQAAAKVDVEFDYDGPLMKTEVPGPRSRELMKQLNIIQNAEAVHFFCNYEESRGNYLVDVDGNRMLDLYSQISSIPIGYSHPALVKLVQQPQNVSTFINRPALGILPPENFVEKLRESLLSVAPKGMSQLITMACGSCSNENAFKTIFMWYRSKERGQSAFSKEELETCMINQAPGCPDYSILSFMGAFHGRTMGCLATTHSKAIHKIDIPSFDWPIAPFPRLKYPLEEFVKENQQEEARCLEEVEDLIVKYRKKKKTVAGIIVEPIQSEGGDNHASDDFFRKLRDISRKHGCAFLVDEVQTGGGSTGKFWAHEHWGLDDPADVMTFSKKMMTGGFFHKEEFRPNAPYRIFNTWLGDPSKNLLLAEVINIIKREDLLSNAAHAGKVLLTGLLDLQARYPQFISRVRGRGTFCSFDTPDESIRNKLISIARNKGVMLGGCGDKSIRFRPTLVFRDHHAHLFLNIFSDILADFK
CYP1A, sequence (P05177 whole entry): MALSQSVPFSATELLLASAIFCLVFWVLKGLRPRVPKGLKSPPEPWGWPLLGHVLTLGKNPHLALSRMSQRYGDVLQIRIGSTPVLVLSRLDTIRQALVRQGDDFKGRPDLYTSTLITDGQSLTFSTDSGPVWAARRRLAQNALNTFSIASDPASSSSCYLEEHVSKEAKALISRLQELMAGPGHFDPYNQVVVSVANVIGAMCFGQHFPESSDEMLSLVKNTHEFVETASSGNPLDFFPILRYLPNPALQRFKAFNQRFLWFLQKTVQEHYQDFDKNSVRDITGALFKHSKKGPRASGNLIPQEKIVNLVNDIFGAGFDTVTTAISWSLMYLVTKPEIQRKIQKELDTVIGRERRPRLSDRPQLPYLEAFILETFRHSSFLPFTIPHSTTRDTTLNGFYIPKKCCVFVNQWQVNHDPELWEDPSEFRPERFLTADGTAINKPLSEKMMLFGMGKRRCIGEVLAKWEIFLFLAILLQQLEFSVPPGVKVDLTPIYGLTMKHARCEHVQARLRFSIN
CYP2D6, sequence (P10635 whole entry): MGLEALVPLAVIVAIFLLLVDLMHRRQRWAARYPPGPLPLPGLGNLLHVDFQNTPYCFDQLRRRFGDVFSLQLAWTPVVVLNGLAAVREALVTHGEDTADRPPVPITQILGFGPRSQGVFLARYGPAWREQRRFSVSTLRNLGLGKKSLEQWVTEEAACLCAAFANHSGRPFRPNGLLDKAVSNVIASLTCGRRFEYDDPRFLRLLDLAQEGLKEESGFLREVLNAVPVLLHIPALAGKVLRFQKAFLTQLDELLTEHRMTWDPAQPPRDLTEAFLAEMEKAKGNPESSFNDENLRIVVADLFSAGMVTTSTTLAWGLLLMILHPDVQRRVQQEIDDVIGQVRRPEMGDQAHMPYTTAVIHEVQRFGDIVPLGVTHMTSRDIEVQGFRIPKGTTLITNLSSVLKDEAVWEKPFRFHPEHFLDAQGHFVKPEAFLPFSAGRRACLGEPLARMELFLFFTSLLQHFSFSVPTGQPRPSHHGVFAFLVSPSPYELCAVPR
CYP2C19, sequence (P33261 whole entry): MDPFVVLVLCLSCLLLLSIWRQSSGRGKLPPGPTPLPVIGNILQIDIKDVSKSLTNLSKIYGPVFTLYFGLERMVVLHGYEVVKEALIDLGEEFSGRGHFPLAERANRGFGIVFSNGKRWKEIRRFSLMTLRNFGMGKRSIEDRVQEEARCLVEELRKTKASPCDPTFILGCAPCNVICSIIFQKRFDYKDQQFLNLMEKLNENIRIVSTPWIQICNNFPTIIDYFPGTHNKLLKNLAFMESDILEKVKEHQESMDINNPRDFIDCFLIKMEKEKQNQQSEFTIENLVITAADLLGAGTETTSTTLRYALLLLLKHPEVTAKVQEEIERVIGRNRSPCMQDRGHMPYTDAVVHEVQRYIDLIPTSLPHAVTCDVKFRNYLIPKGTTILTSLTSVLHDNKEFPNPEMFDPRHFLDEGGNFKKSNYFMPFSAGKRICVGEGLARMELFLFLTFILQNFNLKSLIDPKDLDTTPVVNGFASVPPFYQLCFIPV
CYP2C8, sequence (P10632 whole entry): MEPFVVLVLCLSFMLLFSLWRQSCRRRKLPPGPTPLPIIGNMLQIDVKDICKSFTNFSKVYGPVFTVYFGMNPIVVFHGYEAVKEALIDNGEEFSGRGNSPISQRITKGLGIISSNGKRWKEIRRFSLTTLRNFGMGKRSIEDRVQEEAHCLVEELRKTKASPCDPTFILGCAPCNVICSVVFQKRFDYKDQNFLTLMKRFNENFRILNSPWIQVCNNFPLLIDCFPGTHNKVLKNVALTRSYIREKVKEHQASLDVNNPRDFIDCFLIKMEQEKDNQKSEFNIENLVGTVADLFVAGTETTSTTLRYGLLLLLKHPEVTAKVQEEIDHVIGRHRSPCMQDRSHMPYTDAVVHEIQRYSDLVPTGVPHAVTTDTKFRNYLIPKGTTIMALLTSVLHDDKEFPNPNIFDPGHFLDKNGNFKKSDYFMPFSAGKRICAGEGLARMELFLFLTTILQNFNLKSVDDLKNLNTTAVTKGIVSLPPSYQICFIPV
CYP2C9, sequence (P11712 whole entry): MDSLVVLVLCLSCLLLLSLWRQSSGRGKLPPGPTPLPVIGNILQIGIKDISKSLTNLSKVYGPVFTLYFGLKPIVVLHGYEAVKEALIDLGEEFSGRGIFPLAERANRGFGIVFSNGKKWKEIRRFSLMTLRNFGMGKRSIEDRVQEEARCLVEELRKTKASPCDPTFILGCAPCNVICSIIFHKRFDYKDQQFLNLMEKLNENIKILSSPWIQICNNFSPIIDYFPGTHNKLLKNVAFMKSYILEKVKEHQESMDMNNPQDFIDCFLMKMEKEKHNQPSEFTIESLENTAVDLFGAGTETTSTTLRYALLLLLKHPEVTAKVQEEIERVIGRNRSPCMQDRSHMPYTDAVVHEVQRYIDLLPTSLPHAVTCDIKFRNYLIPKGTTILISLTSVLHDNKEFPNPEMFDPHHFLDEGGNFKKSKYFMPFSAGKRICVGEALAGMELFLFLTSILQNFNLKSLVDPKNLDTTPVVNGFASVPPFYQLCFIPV

Usually Ki stands for the equilibrium dissociation constant of an inhibitor or competing ligand from its target. For `N[C@H]1CC(C(=O)O)S(=O)(=O)C1` (mixture of isomers) [Compound 19, (4S)-4-Aminotetrahydrothiophene-2-carboxylic acid 1,1-dioxide hydrochloride], the Ki at GABA-AT [1] (read-out: Ki (reversible inhibition)) came out at 3200 ± 700 µM.

Regarding `N[C@H]1C=C(C(=O)O)SC1` [(S)-4-Amino-4,5-dihydro-2-thiophenecarboxylic acid], the “Potency/inactivation of GABA-AT (in words)” value with GABA-AT [2] is reported as “known inactivator”. The “Inactivation or inhibition of aspartate aminotransferase” value in [3] is on record as “inactivator”.

For orientation: fraction unbound means free concentration divided by total concentration. A higher fraction unbound goes with much free substance. As for `Cl.N[C@@H]1CS[C@H](C(=O)O)C1` [Compound 17, (2S,4S)-4-Aminotetrahydrothiophene-2-carboxylic acid hydrochloride], at GABA-AT [4], the “Inactivation of GABA-AT (in words)” value is reported as “potent inactivators”. In addition, on hERG channel, the “Inhibition of the hERG channel” value is given as “did not inhibit”. Further, the CYP1A inhibition result on CYP1A is on record as “did not inhibit or induce”. Further, at CYP2B6, the CYP2B6 inhibition result is on record as “did not inhibit or induce”. On CYP2C8, the CYP2C8 inhibition entry is listed as “did not inhibit or induce”. Also, the CYP2C9 inhibition entry on CYP2C9 was “did not inhibit or induce”. Further, the CYP2C19 inhibition result on CYP2C19 was “did not inhibit or induce”. For the same compound, the CYP2D6 inhibition entry on CYP2D6 was “did not inhibit or induce”. Also, in the series with CYP3A, the CYP3A inhibition result is on record as “did not inhibit or induce”. Also, in the series “Plasma protein binding”, the fraction unbound was 0.74. Besides, the “metabolized in HLM” value in series [5] is recorded as “less than 20%”.

With `Cl.N[C@@H]1CS[C@@H](C(=O)O)C1` [Compound 18, (2R,4S)-4-Aminotetrahydrothiophene-2-carboxylic acid hydrochloride], the “Inactivation of GABA-AT (in words)” value on GABA-AT [4] was “potent inactivators”.

Regarding `N[C@@H]1CC(C(=O)O)S(=O)(=O)C1` (stereo partly drawn) [Compound 22], on GABA-AT [1] (pH 8.5, 25° C., from IC50 by Cheng-Prusoff, read-out: Ki (reversible inhibition)), the Ki was found to be 7500 ± 700 µM.

Turning to `N[C@@H]1CC[C@H](C(=O)O)C1` [Compound 39, (1S,3R)-3-aminocyclopentane-1-carboxylic acid], on GABA-AT [4], the “Inactivation of GABA-AT (in words)” value was “not an inactivator”. Further, the Ki at GABA-AT [1] (setting [6]) is 870 µM.

In the case of `N[C@@H]1CN[C@H](C(=O)O)C1` [Compound 41, (2S,4S)-4-aminopyrrolidine-2-carboxylic acid], the Ki on GABA-AT [1] (setting [6]) stood at 1300 µM.

For `C=CC(N)CCC(=O)O` (stereo not drawn) [vigabatrin], the “Duration of effective spasms suppression” value with infantile spasms is given as 1 days.

For the compound “mixture of (2S,4S)-4-aminotetrahydrofuran-2-carboxylic acid (40) and (2R,4R)-4-aminotetrahydrofuran-2-carboxylic acid (51) [mixture of enantiomers 40 and 51]”, on GABA-AT [1] (setting [6]), the Ki was found to be 430 µM.
